“And” between values parts separate entries of the source, which are not always exact repeats. Equal values may be shown once. Numbers after ± are expanded uncertainties.
Details: Liquid, Ebulliometric method (Recirculating still)

CCOC(=O)OCC [diethyl carbonate]
vapor or sublimation pressure (303.15 K): 1.95 ± 0.14 kPa and 1.99 ± 0.14 kPa
vapor or sublimation pressure (308.15 K): 2.61 ± 0.14 kPa and 2.65 ± 0.14 kPa
vapor or sublimation pressure (313.15 K): 3.43 ± 0.14 kPa and 3.45 ± 0.14 kPa
vapor or sublimation pressure (318.15 K): 4.46 ± 0.14 kPa and 4.51 ± 0.14 kPa
vapor or sublimation pressure (323.15 K): 5.75 ± 0.14 kPa and 5.83 ± 0.14 kPa

CC(C)CC(C)(C)C [2,2,4-trimethylpentane]
vapor or sublimation pressure (303.15 K): 8.33 ± 0.14 kPa
vapor or sublimation pressure (308.15 K): 10.44 ± 0.14 kPa
vapor or sublimation pressure (313.15 K): 12.97 ± 0.14 kPa
vapor or sublimation pressure (318.15 K): 15.98 ± 0.15 kPa
vapor or sublimation pressure (323.15 K): 19.54 ± 0.15 kPa

CCCCCCC [heptane]
vapor or sublimation pressure (303.15 K): 7.79 ± 0.14 kPa
vapor or sublimation pressure (308.15 K): 9.85 ± 0.14 kPa
vapor or sublimation pressure (313.15 K): 12.34 ± 0.14 kPa
vapor or sublimation pressure (318.15 K): 15.33 ± 0.15 kPa
vapor or sublimation pressure (323.15 K): 18.9 ± 0.15 kPa

Cc1ccccc1 [toluene]
vapor or sublimation pressure (303.15 K): 4.87 ± 0.14 kPa
vapor or sublimation pressure (308.15 K): 6.32 ± 0.14 kPa
vapor or sublimation pressure (313.15 K): 7.78 ± 0.14 kPa
vapor or sublimation pressure (318.15 K): 9.89 ± 0.14 kPa
vapor or sublimation pressure (323.15 K): 12.27 ± 0.14 kPa
